Data reported in patent US7745377B2, “Labeled peptides, proteins and antibodies and processes and intermediates useful for their preparation” (priority 2000, dated 2010).

Experiments:
[1] = Spectral data of merocyanine dyes (absorbance and fluorescence spectra); type: physicochemical; set-up: Absorption Maximum / Emission Maximum: unit not given here; settings: n-butanol
Method: Absorbance spectra were recorded on Hewlett-Packard HP8452 diode array spectrophotometer and fluorescence spectra were recorded on SPEX Fluorolog 2 spectrometer.

[2] = molecular target: T1, RhoA (Homo sapiens, UniProt P61586); assay: Fluorescence of mero-CBD with RhoA-GTPγS; type: binding; settings: RhoA-GTPγS present
T1 construct: 6His; made in house
Method: (§1) Analyses of the solvatochromic activation indicator—A solution of mero-CBD (300 nM) in assay buffer was mixed 1:1 (v/v) with solutions of cdc42 (concentration as indicated), pre-equilibrated with 10 mM GDP or GTPγS as described in Knaus, U. G., Heyworth, P. G., Kinsella, B. T., Curnutte, J. T., and Bokoch, G. M. (1992) J. Biol. Chem. 267, 23575-23582. Emission wavelength of 630 nm and excitation wavelength of 600 nm were used to acquire excitation and emission spectra, respectively. For nucleotide dependence, cdc42 (500 nM) was pre-incubated with varying concentrations of GTPγS (1 to 500 nM). Rac1 and RhoA GTPases were pre-equilibrated with GTP […]S in the same manner.
(§2) Fluorescence increase as a measure of CBD-cdc42 interaction—The functionality and specificity of mero-CBD was characterized by measuring fluorescence in the presence of saturating amounts of cdc42-GDP or cdc42-GTPγS. […] Negligible increase (<5%) was also observed in the presence of activated Rac1. No effect on the mero-CBD fluorescence was observed when RhoA-GTPγS was present. Furthermore, even in the presence of excess of activated Rac1 and RhoA, GDP- and GTPγS-bound forms of cdc42 were easily distinguished by CBD-A4C fluorescence (data not shown).

[3] = molecular target: T2, Rac1 (Homo sapiens, UniProt P63000); assay: Fluorescence of mero-CBD with activated Rac1; type: binding; settings: Rac1 pre-equilibrated with GTPγS
T2 construct: 6His; made in house
Method: as §1, §2

[4] = molecular target: T3, cdc42 (Homo sapiens, UniProt P60953); assay: Fluorescence of mero-CBD solvatochromic activation indicator with cdc42; type: binding; settings: for increase of fluorescence intensity on binding activated cdc42: cdc42-GTPγS, excitation and emission maxima
T3 construct: 6His; made in house
Method: as §1, §2

T3 sequence (P60953 whole entry, species assumed): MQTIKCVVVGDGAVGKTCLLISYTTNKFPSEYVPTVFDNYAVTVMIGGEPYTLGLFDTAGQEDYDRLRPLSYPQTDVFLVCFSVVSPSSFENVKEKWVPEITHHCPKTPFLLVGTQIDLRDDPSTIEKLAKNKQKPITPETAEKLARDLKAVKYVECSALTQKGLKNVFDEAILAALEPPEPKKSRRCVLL
T1 sequence (P61586 whole entry, species assumed): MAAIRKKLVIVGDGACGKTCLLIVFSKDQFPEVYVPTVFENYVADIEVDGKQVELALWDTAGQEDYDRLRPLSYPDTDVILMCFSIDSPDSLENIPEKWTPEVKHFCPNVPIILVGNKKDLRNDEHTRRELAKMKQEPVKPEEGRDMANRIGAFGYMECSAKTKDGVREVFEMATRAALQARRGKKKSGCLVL

Molecule	Absorption Maximum [1]	Emission Maximum [1]	Extinction coefficient (*10^−3) [1]	Quantum Yield [1]	effect on mero-CBD fluorescence of RhoA-GTPγS [2]	fluorescence increase in presence of activated Rac1 [3]	increase of fluorescence intensity on binding activated cdc42 [4]	increase of fluorescence intensity on binding activated cdc42 ([4]; listed as CBD biosensor)	fluorescence increase in presence of cdc42-GDP ([4]; saturating cdc42-GDP)
O=C1/C(=C/C=C/C=C2/Sc3ccccc3N2CCCS(=O)(=O)[O-])S(=O)(=O)c2ccccc21.[Na+] [Compound 2]	603	623	100	0.10	–	–	–	–	–
CC1(C)/C(=C/C=C/C=C2/C(=O)c3ccccc3S2(=O)=O)N(CCCS(=O)(=O)[O-])c2ccccc21.[Na+] [Compound 3]	–	–	120	0.17	–	–	–	–	–
CC1(C)/C(=C/C=C/C=C2/C(=O)c3ccccc3C2=C(C#N)C#N)N(CCCS(=O)(=O)[O-])c2ccccc21.[Na+] [Compound 4]	–	–	80	0.10	–	–	–	–	–
mero-CBD: cdc42 binding domain of WASP (amino acids 201 to 321) conjugated to the merocyanine dye shown in FIG. 11 (conjugate) DIQNPDITSSRYRGLPAPGPSPADKKRSGKKKISKADIGAPSGFKHVSHVGWDPQNGFDVNNLDPDLRSLCSRAGISEAQLTDAETSKLIYDFIEDQGGLEAVRQEMRRQEPLPPPPPPSHHHHHH	–	–	–	–	No effect	< 5%	Approximately 3.5 fold	up to 3.5 fold	not cdc42-GDP
